Data from patent publication US20120004228A1, “Bis Aromatic Compounds for Use as LTC4 Synthase Inhibitors” (BIOLIPOX AB, priority 2009, published 2012).

These compounds were tested against T1, Recombinant human LTC4 synthase (Homo sapiens, UniProt Q16873) (assay: In vitro LTC4 synthase assay (LTA4 to LTC4, HTRF detection)). Settings: not given.
T1 construct: made in house; host or cells: Pichia pastoris ('Piccia pastoralis' [sic])
T1 sequence (Q16873 1-150): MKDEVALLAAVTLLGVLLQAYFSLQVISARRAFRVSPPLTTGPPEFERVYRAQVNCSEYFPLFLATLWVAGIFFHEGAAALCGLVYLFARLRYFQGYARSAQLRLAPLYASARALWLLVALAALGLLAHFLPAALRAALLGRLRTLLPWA
Assay type: biochemical

| IC50 | Compound |
| --- | --- |
| 0.08 µM | CN(c1ccc(Cl)cc1)c1ccc(C(=O)c2cc(Oc3ccccc3Cl)cc(C(=O)O)c2)cc1 [8:19, 3-(2-Chlorophenoxy)-5-{4-[(4-chlorophenyl)(methyl)amino]benzoyl}benzoic acid] |
| 0.03 µM | CN(c1ccc(Cl)cc1)c1ccc(C(=O)c2cc(Oc3ccc(F)c(F)c3)cc(C(=O)O)c2)cc1 [Example 8:9, 3-{4-[(4-Chlorophenyl)(methyl)amino]benzoyl}-5-(3,4-difluorophenoxy)benzoic acid] |
| 0.11 µM | CN(c1ccc(Cl)cc1)c1ccc(C(=O)c2cc(Nc3ccccc3OC(F)F)cc(C(=O)O)c2)cc1 [10:12, 3-{4-[(4-Chlorophenyl)(methyl)amino]benzoyl}-5-(2-difluoromethoxyphenyl-amino)benzoic acid] |
| 0.834 µM | CN(c1ccc(Cl)cc1)c1ccc(C(=NO)c2cc(Oc3ccccc3)cc(C(=O)O)c2)cc1 (mixture of isomers) [Example 17, 3-({4-[(4-Chlorophenyl)(methyl)amino]phenyl}(hydroxyimino)methyl)-5-phenoxy-benzoic acid] |
| 0.143 µM | CN(c1ccc(Cl)cc1)c1ccc(C(=O)c2cc(NC3CCSCC3)cc(C(=O)O)c2)cc1 [10:21] |
| 0.745 µM | CON=C(c1ccc(N(C)c2ccc(Cl)cc2)cc1)c1cc(Oc2ccccc2)cc(C(=O)O)c1 (mixture of isomers) [Example 18, 3-({4-[(4-Chlorophenyl)(methyl)amino]phenyl}(methoxyimino)methyl)-5-phenoxybenzoic acid] |
| 0.36 µM | COc1ccccc1Nc1cc(C(=O)O)cc(C(=O)c2ccc(N(C)c3ccc(Cl)cc3)cc2)c1 [10:15, 3-{4-[(4-Chlorophenyl)(methyl)amino]benzoyl}-5-(2-methoxyphenylamino)-benzoic acid] |
| 0.273 µM | COc1cccc(Nc2cc(C(=O)O)cc(C(=O)c3ccc(N(C)c4ccc(Cl)cc4)cc3)c2)c1 [Example 10:3, 3-{4-[(4-Chlorophenyl)(methyl)amino]benzoyl}-5-(3-methoxyphenylamino)-benzoic acid] |
| 0.139 µM | CCCCCCC(=O)Nc1cc(C(=O)O)cc(C(=O)c2ccc(N(C)c3ccc(Cl)cc3)cc2)c1 [Example 1:2, 3-{4-[(4-Chlorophenyl)(methyl)amino]benzoyl}-5-heptylamidobenzoic acid] |
| 0.744 µM | COc1ccc(NC(=O)c2cc(C(=O)O)cc(C(=O)c3ccc(N(C)c4ccc(Cl)cc4)cn3)c2)cc1 [2:6, 3-{5-[(4-Chlorophenyl)(methyl)amino]picolinoyl}-5-(4-methoxyphenyl-carbamoyl)benzoic acid] |
| 0.088 µM | COc1ccc(N(CC2(C)COC2)c2cc(C(=O)O)cc(C(=O)c3ccc(N(C)c4ccc(Cl)cc4)cn3)c2)cc1 [9:25, 3-{5-[(4-Chlorophenyl)(methyl)amino]picolinoyl}-5-{(4-methoxyphenyl)-[(3-methyloxetan-3-yl)methyl]amino}benzoic acid] |
| 0.17 µM | CN(Cc1ccc(Cl)cc1)c1cc(C(=O)O)cc(C(=O)c2ccc(N(C)c3ccc(Cl)cc3)cn2)c1 [9:12, 3-((4-Chlorobenzyl)(methyl)amino)-5-{5-[(4-chlorophenyl)(methyl)amino]-picolinoyl}benzoic acid] |
| 0.682 µM | CN(c1ccc(Cl)cc1)c1ccc(C(=O)c2cc(C(=O)O)cc(C(=O)Nc3cc(F)ccc3F)c2)cc1 [2:15, 3-{4-[(4-Chlorophenyl)(methyl)amino]benzoyl}-5-(2,5-difluorophenyl-carbamoyl)benzoic acid] |
| 0.146 µM | O=C(O)c1cc(Nc2ccc(Cl)cc2)cc(C(=O)c2ccc(Nc3ccc(Cl)cc3)cc2)c1 [Example 3, 3-(4-Chorophenylamino)-5-[4-(4-chlorophenylamino)benzoyl]benzoic acid] |
| 0.043 µM | C#CCN(c1ccccc1)c1cc(C(=O)O)cc(C(=O)c2ccc(N(C)c3ccc(Cl)cc3)cn2)c1 [9:8, 3-{5-[(4-Chlorophenyl)(methyl)amino]picolinoyl}-5-[phenyl(prop-2-ynyl)amino]-benzoic acid] |
| 0.549 µM | CN(c1ccc(Cl)cc1)c1ccc(C(=O)c2ccc(NS(=O)(=O)c3ccc(OC(F)(F)F)cc3)cc2)c(C(=O)O)c1 [Example 5, 5-[(4-Chlorophenyl)(methyl)amino]-2-[4-(4-trifluoromethoxybenzenesulfonamido)-benzoyl]benzoic acid] |
| 0.183 µM | CCN(CC)c1ccc(Oc2cc(C(=O)O)cc(C(=O)c3ccc(N(C)c4ccc(Cl)cc4)cc3)c2)cc1 [8:15, 3-{4-[(4-Chlorophenyl)(methyl)amino]benzoyl}-5-(4-(diethylamino)phenoxy)-benzoic acid] |
| 0.183 µM | CC(C)OCC(O)CN(c1ccccc1)c1cc(C(=O)O)cc(C(=O)c2ccc(N(C)c3ccc(Cl)cc3)cc2)c1 (stereo not shown) [Example 10:38, 3-{4-[(4-Chlorophenyl)(methyl)amino]benzoyl}-5-[(2-hydroxy-3-isopropoxy-propyl)(phenyl)amino]benzoic acid] |

| IC50 | Compound |
| --- | --- |
| 2.55 µM | CC(=O)N(c1cc(C(=O)O)cc(C(=O)c2ccc(N(C)c3ccc(Cl)cc3)cn2)c1)C1CCOCC1 [9:44, 3-{5-[(4-Chlorophenyl)(methyl)amino]picolinoyl}-5-[N-(4-tetrahydropyranyl)-acetamido]benzoic acid] |
| 0.343 µM | CN(c1ccc(Cl)cc1)c1ccc(C(=O)c2cc(C(=O)O)cc(C(=O)Nc3ccc(Cl)cc3)c2)nc1 [2:3, 3-{5-[(4-Chlorophenyl)(methyl)amino]picolinoyl}-5-(4-chlorophenyl-carbamoyl)-benzoic acid] |
| 0.445 µM | CN(c1ccc(Cl)cc1)c1ccc(C(=O)c2cc(C(=O)O)cc(-c3ccc(Cl)cc3)c2)nc1 [12:2, 4′-Chloro-5-{5-[(4-chlorophenyl)(methyl)amino]picolinoyl}biphenyl-3-carboxylic acid] |
| 0.077 µM | CN(c1ccc(Cl)cc1)c1ccc(C(=O)c2cc(Oc3ccccc3Cl)cc(C(=O)O)c2)nc1 [8:8, 3-(2-Chlorophenoxy)-{5-[(4-chlorophenyl)(methyl)amino]picolinoyl}benzoic acid] |
| 0.08 µM | CN(c1ccc(Cl)cc1)c1ccc(C(=O)c2cc(Nc3ccccc3)cc(C(=O)O)c2)cc1 [10:8, 3-{4-[(4-Chlorophenyl)(methyl)amino]benzoyl}-5-phenylamino-benzoic acid] |
| 0.075 µM | CN(c1ccc(Cl)cc1)c1ccc(C(=O)c2cc(NCc3ccc(Cl)cc3Cl)cc(C(=O)O)c2)cc1 [10:14, 3-{4-[(4-Chlorophenyl)(methyl)amino]benzoyl}-5-(2,4-dichlorobenzylamino)-benzoic acid] |
| 0.04 µM | CN(c1ccc(Cl)cc1)c1ccc(C(=O)c2cc(C(=O)O)cc(N(C)c3ccccc3F)c2)cc1 [10:24, 3-{4-[(4-Chlorophenyl)(methyl)amino]benzoyl}-5-[(2-fluorophenyl)(methyl)-amino]benzoic acid] |
| 0.105 µM | CN(c1ccc(Cl)cc1)c1ccc(C(=O)c2cc(Nc3ccc4c(c3)OC(F)(F)O4)cc(C(=O)O)c2)cc1 [10:18, 3-{4-[(4-Chlorophenyl)(methyl)amino]benzoyl}-5-[3,4-(difluoromethylene-dioxy)phenylamino]benzoic acid] |
| 0.184 µM | CN(c1ccc(Cl)cc1)c1ccc(C(=O)c2cc(C(=O)O)cc(-c3cccc(Cl)c3)c2)nc1 [Example 12:1, 3′-Chloro-5-{5-[(4-chlorophenyl)(methyl)amino]picolinoyl}biphenyl-3-carboxylic acid] |
| 0.173 µM | COc1cccc(C(=O)c2cc(C(=O)O)cc(C(=O)c3ccc(N(C)c4ccc(Cl)cc4)cn3)c2)c1 [Example 15, 3-{5-[(4-Chlorophenyl)(methyl)amino]picolinoyl}-5-(3-methoxybenzoyl)benzoic acid] |
| 0.04 µM | CC(=O)N(c1ccccc1)c1cc(C(=O)O)cc(C(=O)c2ccc(N(CC3CC3)c3ccc(Cl)cc3)cn2)c1 [9:19, 3-{5-[(4-Chlorophenyl)(cyclopropylmethyl)amino]picolinoyl}-5-(N-phenylacet-amido)benzoic acid] |
| 0.39 µM | O=C(O)c1cc(Nc2ccc(Cl)cc2)ccc1C(=O)c1ccc(Nc2ccc(C(=O)C3CC3)cc2)cc1 [6:2, 5-(4-Chlorophenylamino)-2-[4-(4-cyclopropylcarbonylphenylamino)-benzoyl]benzoic acid] |
| 0.525 µM | COc1cccc(Nc2cc(C(=O)O)cc(C(=O)c3ccc(N(C)c4ccc(Cl)cc4)cn3)c2)c1 [9:31, 3-{5-[(4-Chlorophenyl)(methyl)amino]picolinoyl}-5-(3-methoxyphenylamino)-benzoic acid] |
| 0.757 µM | CCC(CC)C(=O)N(c1ccccc1)c1cc(C(=O)O)cc(C(=O)c2ccc(N(C)c3ccc(Cl)cc3)cc2)c1 [10:33, 3-{4-[(4-Chlorophenyl)(methyl)amino]benzoyl}-5-(2-ethyl-N-phenylbutan-amido)benzoic acid] |
| 0.216 µM | CN(c1ccc(Cl)cc1)c1ccc(C(=O)c2cc(C(=O)O)cc(N(C)c3ccc4c(c3)OCCO4)c2)nc1 [9:34, 3-{5-[(4-Chlorophenyl)(methyl)amino]picolinoyl}-5-[(3,4-ethylenedioxy-phenyl)(methyl)amino]benzoic acid] |
| 0.146 µM | CN(c1ccc(Cl)cc1)c1ccc(C(=O)c2cc(C(=O)O)cc(C(=O)c3ccccc3)c2)nc1 [Example 14, 3-Benzoyl-5-{5-[(4-chlorophenyl)(methyl)amino]picolinoyl}benzoic acid] |
| 0.061 µM | CN(c1ccc(Cl)cc1)c1ccc(C(=O)c2cc(Oc3ccccc3)cc(C(=O)O)c2)cc1 [8:11, 3-{4-[(4-Chlorophenyl)(methyl)amino]benzoyl}-5-phenoxybenzoic acid] |
| 0.017 µM | CN(c1ccc(Cl)cc1)c1cc(C(=O)O)cc(C(=O)c2ccc(N(CC3CC3)c3ccc(Cl)cc3)cn2)c1 [Example 9:16, 3-{5-[(4-Chlorophenyl)(cyclopropylmethyl)amino]picolinoyl}-5-[(4-chlorophenyl)-(methyl)amino]benzoic acid] |

Same assay, conditions: 5 min; total concentration of title compound in the assay 10 μM

| inhibition at 10 µM | Compound |
| --- | --- |
| 94% | CCCCCCC(=O)Nc1cc(C(=O)O)cc(C(=O)c2ccc(N(C)c3ccc(Cl)cc3)cc2)c1 [Example 1:2, 3-{4-[(4-Chlorophenyl)(methyl)amino]benzoyl}-5-heptylamidobenzoic acid] |
| 99% | O=C(O)c1cc(Nc2ccc(Cl)cc2)cc(C(=O)c2ccc(Nc3ccc(Cl)cc3)cc2)c1 [Example 3, 3-(4-Chorophenylamino)-5-[4-(4-chlorophenylamino)benzoyl]benzoic acid] |
| 100% | CN(c1ccc(Cl)cc1)c1ccc(C(=O)c2ccc(NS(=O)(=O)c3ccc(OC(F)(F)F)cc3)cc2)c(C(=O)O)c1 [Example 5, 5-[(4-Chlorophenyl)(methyl)amino]-2-[4-(4-trifluoromethoxybenzenesulfonamido)-benzoyl]benzoic acid] |
| 100% | O=C(O)c1cc(Nc2ccc(Cl)cc2)ccc1C(=O)c1ccc(Nc2ccc(C(=O)C3CC3)cc2)cc1 [6:2, 5-(4-Chlorophenylamino)-2-[4-(4-cyclopropylcarbonylphenylamino)-benzoyl]benzoic acid] |
